SMILES strings stand for the structures.

This is an account of results in patent US10316035B2, “Triazolopyridine inhibitors of myeloperoxidase” (BRISTOL-MYERS SQUIBB COMPANY, priority 2015, dated 2019).

The target in this assay is T1, myeloperoxidase (MPO) (Homo sapiens, UniProt P05164).
T1 sequence (P05164 49-745): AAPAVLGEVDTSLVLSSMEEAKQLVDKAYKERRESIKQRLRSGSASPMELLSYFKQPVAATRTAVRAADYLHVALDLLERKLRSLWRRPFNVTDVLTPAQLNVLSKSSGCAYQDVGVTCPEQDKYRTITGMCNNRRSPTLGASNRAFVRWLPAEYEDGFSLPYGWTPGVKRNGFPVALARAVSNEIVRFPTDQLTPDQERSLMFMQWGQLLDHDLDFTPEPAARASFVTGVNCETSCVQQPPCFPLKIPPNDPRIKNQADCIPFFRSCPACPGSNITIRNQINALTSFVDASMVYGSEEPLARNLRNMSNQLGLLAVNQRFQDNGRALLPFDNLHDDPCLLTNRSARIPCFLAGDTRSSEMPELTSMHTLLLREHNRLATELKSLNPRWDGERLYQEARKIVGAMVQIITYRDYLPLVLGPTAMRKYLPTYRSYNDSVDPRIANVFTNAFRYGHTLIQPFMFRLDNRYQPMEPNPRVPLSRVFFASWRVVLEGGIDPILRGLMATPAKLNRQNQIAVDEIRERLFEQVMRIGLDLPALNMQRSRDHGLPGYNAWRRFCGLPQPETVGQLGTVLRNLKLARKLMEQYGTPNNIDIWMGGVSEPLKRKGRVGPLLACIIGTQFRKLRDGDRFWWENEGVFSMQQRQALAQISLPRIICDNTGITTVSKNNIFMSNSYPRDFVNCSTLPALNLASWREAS
As to the kind of experiment: MPO peroxidation assay (Amplex Red assay). It counts as biochemical. To be noted: MPO peroxidation, potency range class; read-out: Amplex Red IC50. The method in brief:
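MPO (200 pM) with 40 nM H2O2 was preincubated 10 min at room temperature with inhibitor in 100 mM KPi pH 7.4. A mix of Amplex Red (200 μM) and H2O2 (10 mM) was then added and resorufin fluorescence read kinetically for 15 min. Slopes over 180–540 s gave % inhibition and IC50 via a four-parameter Hill fit.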
For the compound `COCCNC(=O)c1ccc(F)c(COc2cc(N)nc3[nH]nnc23)c1` [Example 158, 3-((5-amino-3H-[1,2,3]triazolo[4,5-b]pyridin-7-yloxy)methyl)-4-fluoro-N-(2-methoxyethyl)benzamide], the IC50 (usually the midpoint of a concentration-inhibition curve) fell in the range of 1 to 100 nM.

As for `CN(C(=O)c1ccc(F)c(COc2cc(N)nc3[nH]nnc23)c1)c1ccccc1` [Example 159, 3-((5-amino-3H-[1,2,3]triazolo[4,5-b]pyridin-7-yloxy)methyl)-4-fluoro-N-methyl-N-phenylbenzamide], the IC50 lay in the range of 1 to 100 nM. As for `Nc1cc(OCc2cc(C(=O)NC3(CO)CCCC3)ccc2F)c2nn[nH]c2n1` [Example 160, 3-((5-amino-3H-[1,2,3]triazolo[4,5-b]pyridin-7-yloxy)methyl)-4-fluoro-N-(1-(hydroxymethyl)cyclopentyl) benzamide], the IC50 was 101 to 999 nM. Turning to `NC(=O)CNC(=O)c1ccc(F)c(COc2cc(N)nc3[nH]nnc23)c1` [Example 161, N-(2-amino-2-oxoethyl)-3-((5-amino-3H-[1,2,3]triazolo[4,5-b]pyridin-7-yloxy)methyl)-4-fluorobenzamide], the IC50 fell in the range of 1 to 100 nM. Turning to `Nc1cc(OCc2cc(C(=O)NCC3CC3)ccc2F)c2nn[nH]c2n1` [Example 162, 3-((5-amino-3H-[1,2,3]triazolo[4,5-b]pyridin-7-yloxy)methyl)-N-(cyclopropylmethyl)-4-fluorobenzamide], the IC50 fell in the range of 1 to 100 nM. Turning to `Nc1cc(OCc2cc(C(=O)NC3CCC(O)CC3)ccc2F)c2nn[nH]c2n1` (stereo not drawn) [Example 163], the IC50 fell in the range of 101 to 999 nM. `CN1CCC(N(C)C(=O)c2ccc(F)c(COc3cc(N)nc4[nH]nnc34)c2)C1` (stereo not drawn) [Example 164]: the IC50 is 101 to 999 nM. The result for `Nc1cc(OCc2cc(C(=O)N3CC[C@@H](O)C3)ccc2F)c2nn[nH]c2n1` [Example 166, (R)-(3-((5-amino-3H-[1,2,3]triazolo [4,5-b]pyridin-7-yloxy)methyl)-4-fluorophenyl)(3-hydroxypyrrolidin-1-yl)methanone] reads 101 to 999 nM. Regarding `Nc1cc(OCc2cc(C(=O)N3CCNC(=O)C3)ccc2F)c2nn[nH]c2n1` [Example 169, 4-(3-((5-amino-3H-[1,2,3]triazolo [4,5-b]pyridin-7-yloxy)methyl)-4-fluorobenzoyl)piperazin-2-one], the IC50 is 101 to 999 nM.

As to `NC(=O)CCNC(=O)c1ccc(F)c(COc2cc(N)nc3[nH]nnc23)c1` [Example 170, N-(3-amino-3-oxopropyl)-3-((5-amino-3H-[1,2,3]triazolo[4,5-b]pyridin-7-yloxy)methyl)-4-fluorobenzamide], the IC50 lay within 1 to 100 nM. The result for `COC(=O)c1ccc(Cl)c(COc2cc(N)nc3[nH]nnc23)c1` [Example 171, Methyl 3-((5-amino-3H-[1,2,3]triazolo[4,5-b]pyridin-7-yloxy)methyl)-4-chlorobenzoate] reads 1 to 100 nM; that for `Nc1cc(OCc2cc(C(=O)NCc3ccccc3)ccc2Cl)c2nn[nH]c2n1` [Example 173, 3-((5-amino-3H-[1,2,3]triazolo [4,5-b]pyridin-7-yloxy)methyl)-N-benzyl-4-chlorobenzamide], 1 to 100 nM. For the compound `CN(C(=O)c1ccc(Cl)c(COc2cc(N)nc3[nH]nnc23)c1)c1ccccc1` [Example 175, 3-((5-amino-3H-[1,2,3]triazolo [4,5-b]pyridin-7-yloxy)methyl)-4-chloro-N-methyl-N-phenylbenzamide], the IC50 was in the range of 1 to 100 nM. Take `Nc1cc(OCc2cc(C(=O)N3CCC(O)C3)ccc2Cl)c2nn[nH]c2n1` (stereo not drawn) [Example 176, (3-((5-amino-3H-[1,2,3]triazolo [4,5-b]pyridin-7-yloxy)methyl)-4-chlorophenyl)(3-hydroxypyrrolidin-1-yl)methanone]: the IC50 was 101 to 999 nM. `Nc1cc(OCc2cc(C(=O)N3CCC[C@@H]3CO)ccc2Cl)c2nn[nH]c2n1` [Example 178, (R)-(3-((5-amino-3H-[1,2,3]triazolo[4,5-b]pyridin-7-yloxy)methyl)-4-chlorophenyl)(2-(hydroxymethyl)pyrrolidin-1-yl)methanone]: the IC50 was in the range of 101 to 999 nM.
